Results on nine compounds are retold here after US20230094471A1, “CYTOTOXIC BIS-BENZODIAZEPINE DERIVATIVES AND CONJUGATES THEREOF WITH CELL-BINDING AGENTS FOR INHIBITING ABNORMAL CELL GROWTH OR FOR TREATING PROLIFERATIVE DISEASES” (priority 2019, published 2023).

For orientation: IC50 means the concentration that inhibits the measured activity by half.

Data set [1] deals with Namalwa (Burkitt's lymphoma). The data set can be described thus: In vitro cytotoxicity assay (WST-8), Namalwa cells. Conditions: read-out: IC50 values for free cytotoxic compounds, Namalwa. As to the method: (§1) The following cell lines were used for the studies: KB (cervical carcinoma, ATCC), NCI-H2110 (Non Small Cell Lung Carcinoma, ATCC), Namalwa (Burkitt's lymphoma, ATCC), and T47D (breast epithelial cancer, ATCC). The cells were maintained and plated for the cytotox experiments in media recommended by the manufacturers. Cells were plated in the 96-well flat bottom plates at a seeding density of 1,000 cells per well (KB, Namalwa) or 2,000 cell per well (NCI H2110, T47D). […] To determine specificity of cytotoxic activity of the conjugates an excess of unconjugated antibody was added to a separate set of diluted conjugates (+block samples, IC50 table). The plates were incubated at 37° C., 5% CO2 for either 4 days (T47D cells) or 5 days (KB, NCI H2110 cells). Alamar blue assay (Invitrogen) was used to determine viability of T47D cells, and WST-8 assay (Donjindo Molecular Technologies, Inc.) was applied for viability of KB, NCI H2110, Namalwa cells. The assays were performed in accordance with the manufacturer's protocols. Killing curves and IC50 were generated using a sigmoidal dose-response nonlinear regression curve fit (GraphPad Software Inc.).
In general terms: Tetrazolium dyes change colour on reduction, which living cells bring about.

The subject of data set [2] is KB (cervical carcinoma). The data set can be described thus: In vitro cytotoxicity assay (WST-8), KB cells. The note with it: Homo sapiens, 120 h, read-out: IC50 values for free cytotoxic compounds, KB. How it is done: as §1
For data set [3] the following is noted: Phase I clinical evaluation (Hochhauser et al., 2009); cited from earlier work.

Consider `COc1cc2c(cc1OCCCCCOc1cc3c(cc1OC)C(=O)N1Cc4ccccc4C[C@H]1CN3)N=C[C@@H]1Cc3ccccc3N1C2=O` [Compound 108], for which the IC50 in data set [1] was determined as 10 pM; in data set [2], 50 pM.

With `COc1cc2c(cc1OCCCCCOc1cc3c(cc1OC)C(=O)N1c4ccccc4C[C@H]1CN3)N=C[C@@H]1Cc3ccccc3N1C2=O` [Compound 162], the IC50 was 3 pM in data set [1] and 20 pM in data set [2].

As to `COc1cc2c(cc1OCc1cccc(COc3cc4c(cc3OC)C(=O)N3c5ccccc5C[C@H]3CN4)c1)N=C[C@@H]1Cc3ccccc3N1C2=O` [Compound 150], the IC50 in data set [1] was 1 pM; in data set [2], 8 pM.

With `C=C1C[C@H]2C=Nc3cc(OCCCOc4cc5c(cc4OC)C(=O)N4CC(=C)C[C@H]4C=N5)c(OC)cc3C(=O)N2C1` [SJG-136], the maximum tolerated dose in data set [3] was 45 μg/m^2.

For `COC(=O)c1cc(COc2cc3c(cc2OC)C(=O)N2c4ccccc4C[C@H]2C=N3)cc(COc2cc3c(cc2OC)C(=O)N2c4ccccc4C[C@H]2CN3)c1` [Compound 157], the figures for the IC50 in data set [1] and in data set [2] were 1 pM and 3 pM, respectively.

With `COCCOCCOCCNc1cc(COc2cc3c(cc2OC)C(=O)N2c4ccccc4C[C@H]2C=N3)cc(COc2cc3c(cc2OC)C(=O)N2c4ccccc4C[C@H]2CN3)c1` [Compound 155], the IC50 was determined as 2 pM in data set [1] and 20 pM in data set [2].

`COc1cc2c(cc1OCCCCCOc1cc3c(cc1OC)C(=O)N1c4ccccc4C[C@H]1CN3)N=C[C@@H]1Cc3ccccc3CN1C2=O` [Compound 123]: the IC50 in data set [1] is 1 pM; in data set [2] it was 3 pM.

Turning to `COc1cc2c(cc1OCCCOc1cc3c(cc1OC)C(=O)N1c4ccccc4C[C@H]1CN3)N=C[C@@H]1Cc3ccccc3N1C2=O` [Compound 161], the IC50 is 30 pM in data set [1] and 250 pM in data set [2].

In the case of `COc1cc2c(cc1OCc1cccc(COc3cc4c(cc3OC)C(=O)N3c5ccccc5C[C@H]3CN4)n1)N=C[C@@H]1Cc3ccccc3N1C2=O` [Compound 159], the IC50 in data set [1] is 1 pM; in data set [2], 3 pM.
